In patent US6410792B1, “Amide derivatives and methods for using the same as selective neuropeptide Y receptor antagonists” (Bayer Corporation, priority 1997, dated 2002) one finds IC50, activity and melting point data, which are given here for four molecules.

SMILES strings stand for the structures. pIC50: −log10 of the molar value. Bounds are passed on as bounds.

In one data set the target is T1, Human NPY1 receptor (Homo sapiens, UniProt P25929).
T1 construct: host or cells: SK-N-MC cells
T1 sequence (P25929 1-384): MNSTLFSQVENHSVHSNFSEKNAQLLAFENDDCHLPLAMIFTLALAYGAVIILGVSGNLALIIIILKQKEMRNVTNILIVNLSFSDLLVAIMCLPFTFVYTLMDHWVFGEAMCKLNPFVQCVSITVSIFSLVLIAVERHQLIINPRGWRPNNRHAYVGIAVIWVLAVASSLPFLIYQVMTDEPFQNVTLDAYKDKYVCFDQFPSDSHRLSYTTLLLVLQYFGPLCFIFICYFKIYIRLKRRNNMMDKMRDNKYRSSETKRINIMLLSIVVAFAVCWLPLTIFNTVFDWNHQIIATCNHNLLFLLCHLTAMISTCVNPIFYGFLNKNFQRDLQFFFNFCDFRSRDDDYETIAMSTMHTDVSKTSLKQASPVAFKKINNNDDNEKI
Kind of data set: Human NPY1 receptor binding assay ([125I]PYY, SK-N-MC cells). The conditions noted are these: [125I]PYY, SK-N-MC cells; read-out: hNPYI IC50. Summed up:
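Confluent SK-N-MC cells preincubated 30 min at room temperature in serum-free DMEM/25 mM HEPES pH 7.3 with BSA, bacitracin and PMSF, then incubated 3 h at room temperature with compound and ~50 pM [125I]PYY. Nonspecific binding defined with 1 μM NPY; bound radioactivity counted after Triton X-100 lysis.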

The target of another data set is T2, Y2 receptor (Homo sapiens, UniProt P49146).
T2 sequence (P49146 1-381): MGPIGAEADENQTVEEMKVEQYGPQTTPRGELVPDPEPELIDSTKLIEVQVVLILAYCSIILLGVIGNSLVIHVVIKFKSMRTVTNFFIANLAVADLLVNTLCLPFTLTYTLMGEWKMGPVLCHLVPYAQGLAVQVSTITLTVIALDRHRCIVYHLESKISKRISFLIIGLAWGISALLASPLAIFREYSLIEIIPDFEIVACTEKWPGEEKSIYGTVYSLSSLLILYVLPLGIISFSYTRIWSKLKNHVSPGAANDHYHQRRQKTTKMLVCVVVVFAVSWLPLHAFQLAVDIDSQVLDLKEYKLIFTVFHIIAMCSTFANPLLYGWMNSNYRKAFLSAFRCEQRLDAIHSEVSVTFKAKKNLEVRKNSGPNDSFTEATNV
Description: Y2 receptor binding assay ([125I]PYY, membrane protein). Conditions: [125I]PYY, membrane protein; read-out: hNPY2 IC50. Summed up:
(§1)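 Filtration binding with membrane protein and drug dilution, 2 h at room temperature with mixing, radioactivity counted by gamma or scintillation. Y2: 25 pM [125I]PYY in Krebs-Ringer bicarbonate pH 7.4 with 0.01% BSA, nonspecific by 1 μM NPY. Y4/PP1: 50 pM [125I]hPP in HEPES-buffered saline pH 7.4 with protease inhibitors and 0.3% BSA, nonspecific by 1 μM hPP.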

For a further data set, the target named is human Y4/PP1 receptor (Homo sapiens, UniProt P50391). Kind of data set: Human Y4/PP1 receptor binding assay ([125I]human PP, membrane protein). The conditions noted are these: [125I]human PP, membrane protein; read-out: hNPY4 IC50. Summed up:
as §1

The target in the next data set is T3, Human NPY5 receptor (Homo sapiens, UniProt Q15761).
T3 sequence (Q15761 1-445): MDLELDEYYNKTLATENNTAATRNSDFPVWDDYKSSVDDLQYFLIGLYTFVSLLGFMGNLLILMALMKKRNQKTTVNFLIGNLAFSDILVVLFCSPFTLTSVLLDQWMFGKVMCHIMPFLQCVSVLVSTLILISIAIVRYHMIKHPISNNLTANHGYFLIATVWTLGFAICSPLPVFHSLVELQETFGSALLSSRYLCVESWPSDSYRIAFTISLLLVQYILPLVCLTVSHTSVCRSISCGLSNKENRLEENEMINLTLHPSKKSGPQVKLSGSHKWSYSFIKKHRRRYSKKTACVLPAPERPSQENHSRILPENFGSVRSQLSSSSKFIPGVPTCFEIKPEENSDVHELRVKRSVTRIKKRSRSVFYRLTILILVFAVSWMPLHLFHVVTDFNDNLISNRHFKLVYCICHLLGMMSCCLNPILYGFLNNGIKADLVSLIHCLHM
Kind of data set: Human NPY5 receptor binding assay ([125I]PYY, membrane protein). The conditions noted are these: [125I]PYY, read-out: hNPY5 IC50. In a few lines:
(§2)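 Membrane protein incubated 2 h at room temperature with 75-100 pM porcine [125I]PYY and compound in pH 7.4 Tris buffer with salts, 0.1% BSA and bacitracin. Nonspecific binding with 1 μM PYY. Filtration, then gamma or scintillation counting.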

Data set [1] concerns the target T4, Rat NPY5 receptor (Rattus norvegicus, UniProt Q63634).
T4 sequence (Q63634 1-445): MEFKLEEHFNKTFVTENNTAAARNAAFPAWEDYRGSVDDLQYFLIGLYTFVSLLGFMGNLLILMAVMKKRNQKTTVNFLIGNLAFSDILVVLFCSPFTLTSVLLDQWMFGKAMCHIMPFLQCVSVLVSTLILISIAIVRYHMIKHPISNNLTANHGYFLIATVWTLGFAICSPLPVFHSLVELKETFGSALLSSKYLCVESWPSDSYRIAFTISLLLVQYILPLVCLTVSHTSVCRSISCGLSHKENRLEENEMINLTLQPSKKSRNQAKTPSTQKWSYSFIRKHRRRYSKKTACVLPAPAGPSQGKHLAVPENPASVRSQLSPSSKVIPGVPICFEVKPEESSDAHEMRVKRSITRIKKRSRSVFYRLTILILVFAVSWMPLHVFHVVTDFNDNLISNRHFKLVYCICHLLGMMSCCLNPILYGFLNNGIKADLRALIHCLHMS
Kind of data set: Rat NPY5 receptor binding assay ([125I]PYY, membrane protein). The conditions noted are these: [125I]PYY, read-out: rNPY5 IC50. In a few lines:
as §2

For data set [2], the target named is T4, Rat NPY5 receptor. Description: Rat NPY5 cyclase assay (in vitro functional assay, forskolin-stimulated adenylate cyclase, cAMP). It counts as cell-based. Conditions: 20 min; 10 μM; percentage of forskolin-stimulated adenylate cyclase; read-out: rNPY5 % FSAC (10 μM). Summed up:
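Cells stably expressing rat NPY5 receptor, in serum-free DMEM with 10 mM HEPES pH 7.4 and 1 mM IBMX, received […] plus compound for 20 min at 37 °C. Reactions were stopped by boiling. cAMP was quantified by radioimmunoassay and expressed as % of forskolin-stimulated adenylate cyclase.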

Sequence of human Y4/PP1 receptor (P50391 whole entry): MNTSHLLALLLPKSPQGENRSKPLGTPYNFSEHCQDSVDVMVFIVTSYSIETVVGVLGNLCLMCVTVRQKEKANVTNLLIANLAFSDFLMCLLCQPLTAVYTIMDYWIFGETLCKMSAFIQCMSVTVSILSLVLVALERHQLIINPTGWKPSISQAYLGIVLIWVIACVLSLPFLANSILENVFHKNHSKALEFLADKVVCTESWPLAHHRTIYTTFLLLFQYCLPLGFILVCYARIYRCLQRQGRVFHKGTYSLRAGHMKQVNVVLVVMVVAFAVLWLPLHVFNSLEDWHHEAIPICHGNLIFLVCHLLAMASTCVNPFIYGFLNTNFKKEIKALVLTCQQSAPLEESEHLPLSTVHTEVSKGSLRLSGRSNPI

The molecule `CC(=O)NC1CCN(CC(=O)Nc2ccc(C3CCCCC3)cc2)C1` (stereo not shown) [Compound 290, 2-(3-Acetylamino-pyrrolidin-1-yl)-N-(4-cyclohexyl-phenyl)-acetamide] registered a melting point of 105 to 110 °C. Besides, the pIC50 on Human NPY1 receptor was less than 5.30. Besides, the pIC50 at Y2 receptor was less than 5.30. Further, the pIC50 at human Y4/PP1 receptor is less than 5.30. In addition, the pIC50 at Human NPY5 receptor was 7.42. Moreover, the pIC50 on Rat NPY5 receptor [1] was 7.72. Moreover, at Rat NPY5 receptor [2], the activity at 10 µM worked out at 101%.
With `CC(=O)NC1CCN(CC(=O)Nc2ccc(C(=O)c3ccccc3)cc2)C1.O=C(O)C(=O)O` (stereo not shown) [Compound 304, 2-(3-Acetylamino-pyrrolidin-1-yl)-N-(4-benzoyl-phenyl)-acetamide; compound with oxalic acid], the melting point was 100 °C. The pIC50 at Human NPY1 receptor was less than 5.30. Moreover, the pIC50 on Y2 receptor was less than 5.30. Moreover, the pIC50 on human Y4/PP1 receptor is less than 5.30. Also, on Human NPY5 receptor, the pIC50 was 6.82. The pIC50 at Rat NPY5 receptor [1] was 6.74. Moreover, the activity at 10 µM on Rat NPY5 receptor [2] came to 85%.
Molecule `CCCc1ccc(NC(=O)CN2CCC(n3c(=O)[nH]c4ccccc43)CC2)cc1` [Compound 253, 2-[4-(2-Oxo-2,3-dihydro-benzoimidazol-1-yl)-piperidin-1-yl]-N-(4-propyl-phenyl)-acetamide] gave a melting point of 116 to 117 °C. Moreover, the pIC50 at Human NPY1 receptor is less than 5.30. Also, the pIC50 at Y2 receptor is less than 5.30. The pIC50 at human Y4/PP1 receptor is less than 5.30. On Human NPY5 receptor, the pIC50 is 7.20. Also, the pIC50 at Rat NPY5 receptor [1] was 7.30. The activity at 10 µM at Rat NPY5 receptor [2] was 99%.
Molecule `O=C(CN1CCC(n2c(=O)[nH]c3ccccc32)CC1)Nc1ccc(-c2ccccc2)cc1` [Compound 275, N-Biphenyl-4-yl-2-[4-(2-oxo-2,3-dihydro-benzoimidazol-1-yl)-piperidin-1-yl]-acetamide] gave a melting point of 180 to 181 °C. Also, at Human NPY1 receptor, the pIC50 was less than 5.30. Besides, the pIC50 on Y2 receptor was less than 5.30. Moreover, at human Y4/PP1 receptor, the pIC50 was less than 5.30. In addition, the pIC50 on Human NPY5 receptor is 7.38. In addition, at Rat NPY5 receptor [1], the pIC50 was 7.72. In addition, the activity at 10 µM on Rat NPY5 receptor [2] came to 103%.
